For experiment [1], the system named is Wild-type P. aeruginosa pyocyanin production. Briefly: Pyocyanin virulence factor production. It is filed as cell-based. Particulars: 100 μM overnight, back diluted, grown 18 hrs with inhibitor. How it is done: FIG. 6. QS inhibitors reduce the level of virulence factor production in P. aeruginosa. The ability of the small molecule inhibitors to reduce virulence factor production by monitoring pyocyanin production was assessed.
The ability of the small molecule QS inhibitors to reduce virulence factor production by monitoring production of pyocyanin as a representative virulence factor was assessed. Wild-type P. aeruginosa was incubated with the indicated molecules at 100 μM overnight, back diluted, and grown for 18 hrs in the presence of QS inhibitor.
By varying the concentration of QS inhibitors, dose dependence curves were generated.

Experiment [2] has as its system P. aeruginosa PA14 ΔlasI ΔrhII CRISPR adaptation. Description: CRISPR adaptation (new spacer integration by PCR). It is filed as cell-based. The settings on record: ΔlasI ΔrhII strain; AIs 2 μM 3-O—C12-HSL+10 μM C4-HSL given together; Baicalein 100 μM with AIs; vs DMSO. The protocol:
FIG. 3. QS inhibitors block CRISPR adaptation and disable QS-mediated bacterial immunity. A P. aeruginosa PA14 ΔlasI ΔrhII QS deficient strain was transformed with foreign DNA (e.g., a CRISPR-targeted plasmid). A single colony from the transformation was re-streaked on selective media containing either DMSO (as a control), AIs (2 μM 3-O—C12-HSL+10 μM C4-HSL), or AIs and a QS inhibitor (2 μM 3-O—C12-HSL+10 μM C4-HSL+100 μM Baicalein). Single colonies were tested for integration of new inserted spacers (conferring immunity) against the CRISPR-targeted plasmid. In particular, PCR primers were designed to amplify specific genomic regions into which spacers were inserted. Primers complementary to the region upstream of the CRISPR region and to the second spacer region were designed, and PCR amplification was utilized to test for the presence of the newly inserted spacer (a process referred to as adaptation).
A P. aeruginosa PA14 ΔlasI ΔrhII QS deficient strain was transformed with foreign DNA (e.g., a CRISPR-targeted plasmid such as pCR2SP1, as described above). A single colony from the transformation was re-streaked on selective medium, e.g., LB medium containing 50 μg/ml gentamicin and either DMSO (as a control), AIs (2 μM 3-O—C12-HSL+10 μM C4-HSL), or both AIs and a QS inhibitor (2 μM 3-O—C12-HSL+[…] C4-HSL+100 μM Baicalein QS inhibitor) and incubated at 37° C. O/N. Single colonies were tested for integration of new immunity spacers against the CRISPR-targeted plasmid by PCR using iProof High-Fidelity DNA Polymerase (Bio-Rad) and primers CR2SP check F+R upstream of the CRISPR2 region and in the second spacer. Thus, PCR primers were designed to amplify the genomic region in which the new spacer was present. Primers targeting a sequence upstream of the CRISPR-Cas region and targeting the second spacer region were designed, and PCR amplification was utilized to test for the presence of the new inserted spacer (a portion of the plasmid sequence inserted between the CRISPR locus and spacers). […]

This note sets out measurements from patent publication US20190307818A1, “NOVEL ANTIMICROBIAL COMPOSITIONS AND METHODS OF USE” (priority 2016, published 2019).

Each structure is given as a SMILES string.

As to `O=c1cc(-c2ccccc2)oc2cc(O)c(O)c(O)c12` [Molecule 46, Baicalein], the pyocyanin production result in experiment [1] is “inhibit pyocyanin to varying degrees”. The “CRISPR adaptation (fraction of cells in the colony that adapted)” value in experiment [2] was “blocked the positive effects of AIs on CRISPR adaptation”.
